From patent publication US20250084380A1, “ARTIFICIAL BRAIN TISSUE” (priority 2016, published 2025)

Tests used:
microglia [1] = assay: Suppression of microglia in 2D primary astrocytic cultures; assay type: cell-based, mice
Text: In addition to primary microglia, an immortalized microglial cell line (N9) was also used. It was noted that this line has a fast proliferation rate and appeared to suppress neuronal cultures, so primary cell lines were maintained as a source of microglia. In general, it is thought that microglia inhibit growth of astrocytic populations. Microglia proliferation is strictly regulated by colony-stimulating factor 1 and its receptor on microglia membranes. Without wishing to be held to a particular theory, it was contemplated that if the receptor for CSF1 growth factor was inhibited, the growth of microglia in astrocytic population would be inhibited. Accordingly, a 2 week experiment was performed in two dimensional (2D) culture conditions to see if microglial growth could be inhibited. For this experiment, the glial media that was supplied with 1 uM supplement of CSF1R inhibitors was used. Media was changed every second day in 96 well plates with 10.000 mice primary astrocytic cultures. […] Number of microglia was determined in cells treated with CSF1R inhibitor or control (FIG. 1, panel N) and further evaluated via WST-1 assay (FIG. 1, panel O).

microglia [2] = assay: Microglia activation with LPS treatment; assay type: cell-based, rat/mouse; settings: 100 ng/mL LPS; 3 days
Protocol: DAPI was used as a nuclear counterstain. Microglia were also assessed for their ability to activate upon or following treatment with lipopolysaccharide (LPS) (FIG. 1, panel G), and further analyzed post-treatment for expression of inducible nitric oxide synthase (iNOS) (FIG. 1, panel H) and interleukin 1-beta (IL1-beta) (FIG. 1, panel I). Microglia activation ability with LPS (lipopolysaccharide) treatment was performed with 100 ng/mL of LPS to activate microglia cells (20,000 cells per well, 96 well plate).

[3] = test system: hiPSC derived 3D neural culture; assay: Local field potential recordings of hiPSC-derived 3D neural culture with activity inhibitors; assay type: cell-based, human; settings: for spontaneous and inducible activity (LFP): CNQX 50 μM, AP5 250 μM together
[4] = test system: primary murine striatal neurons, astrocytes, and microglia; assay: 3D tri-culture intracerebral hemorrhage model with necrostatin-1 treatment; assay type: cell-based, mouse; settings: for total cell number / DNA content (DNA quantification): nec-1 conditions, 24 hour; for ROS / reactive species level vs untreated samples: nec-1 groups, 4 hours post-injury, 250 mol/mL nec-1 for 15 minutes prior to injury
Protocol: Hemorrhage injuries were performed at the Neuroscience Center at Massachusetts General Hospital. Samples were transported to the Center, incubated for one hour at 37° C., and then injected with 10 μL of mouse blood and incubated for another hour before being returned to the Tufts University Biomedical Engineering Department. Samples were evaluated at 4 and 24 hours post-injury. For necrostatin-1 treatment, samples were incubated with […] necrostatin-1 for 15 minutes prior to performing a hemorrhage injury.
For all studies, groups included: untreated controls, sham, sham plus nec-1 treatment, hemorrhage (ICH) or ICH plus nec-1 treatment samples.
Cell viability was assessed with a Live/Dead assay, which uses a mixture of calcein and propidium iodide stains (1.2 μL of calcein (reconstituted in DMSO) and 10 μL of propidium iodide (“PI”) per 1 mL of final stain solution). Samples were washed with PBS 2-3 times and any remaining PBS was aspirated. Sponges were transferred to a 96 well plate, 100 μL of calcein/PI stain solution was added to each sample, and they were incubated at 37° C., covered in aluminum foil for 30 minutes. The stain solution was then aspirated, samples were washed with PBS 2-3 times, and then imaged using a confocal microscop with lasers of wavelengths of […] (to detect calcein staining) and […] (to detect PI staining).
DNA was quantified using a PicoGreen assay. To prepare samples for DNA quantification, they were first washed once with PBS, followed by addition of 100 μL of 0.05% Triton-X to cover the sponge. Samples were stored at −20° C. until use. For measurements, samples were thawed at room temperature and homogenized with scissors. Supernatant was collected and placed in a tube, on ice. Enough 1×TE Buffer needed for a dilution of 100 μL 1×TE buffer and 200 μL supernatant for each sample was prepared, and 4 mL of 1×TE buffer was prepared for the standards. 20×TE buffer was diluted 1:20 in diH20 to get 1×TE buffer. 1×TE buffer was then mixed with sample supernatants in separate 1.5 mL tubes. 100 μL of each sample was added to a 96-well plate, in triplicate. Standards were prepared by mixing the DNA working solution and the TE buffer to create 400 μL solutions with the following DNA concentrations: 2000 ng/mL, 1000 ng/mL, 500 ng/mL, 200 ng/mL, 100 ng/mL, 50 ng/mL, 20 ng/mL, and 0 ng/mL. Once samples were ready for analysis and the fluorescence plate reader was warmed and ready, PicoGreen stain was added to each sample. PicoGreen stain was prepared by making a 200-fold dilution of the stock PicoGreen stain in 1×TE Buffer for a final volume of 100 μL per sample plus 30%. The PicoGreen solution was protected from light and 100 μL of the diluted PicoGreen solution was added to each sample, then incubated at room temperature for 2-3 minutes. Fluorescence of samples was read using a plate-reader with 485 nm excitation and 538 nm emission. Fluorescence readings were converted into cell counts by using standard calculations to determine DNA content of each sample, which was then divided by 5.5 pg, which is the average mass of DNA in neurons (Moroz and Kohn 2013).
LDH assays were run on all samples and standards in duplicate, using a commercially available kit. An NADH standard was prepared using the stock NADH standard solution and the LDH assay buffer to achieve 50 μL each of the following concentrations: 0, 2.5, 5, 7.5, 10, and 12.5 nmole per 50 μL. 500 μL of LDH assay buffer was added to each sample for every 100 mg of tissue and samples were then homogenized with scissors, on ice, prior to centrifuging for 15 min at 10,000 xg and 4° C. 50 μL of the supernatant was added into wells in a 96 well plate (in duplicate) and LDH buffer was added to a total volume of 50 μL per well. For each reaction (sample and standards), 2 μL of LDH substrate mix was added to 48 μL of LDH assay buffer to create a Master Reaction Mix. 50 µL of reaction mix was added to each well and contents were mixed by pipetting up and down. […]

Question: Which “suitability to suppress microglial growth and activity” value (microglia [1]) does the source give for O=P(O)(O)C(Cl)(Cl)P(=O)(O)O [clodronic acid] here?
Answer: found unacceptable

Question: How did the microglia activation (microglia [2]) turn out when lipopolysaccharide [LPS] was run?
Answer: efficient to activate microglia

Question: Which “spontaneous and inducible activity (LFP)” value [3] does the source give for N#Cc1cc2c(cc1[N+](=O)[O-])=NC(=O)C(=O)N=2 [CNQX, 6-cyano-7-nitroquinoxaline-2,3-dione] here?
Answer: partially blocked

Question: With NC1=N[C@H](O)[C@H]2[C@H]3O[C@]4(O)O[C@@H]([C@@H](O)[C@@]2(N1)[C@@H]4O)[C@]3(O)CO [TTX, tetrodotoxin] as the compound, how does the “activity (LFP)” value [3] read?
Answer: blocked

Question: With CN1C(=O)C(Cc2c[nH]c3ccccc23)NC1=S (centres unmarked) [necrostatin-1, Necrostatin-1] as the compound, how does the “reactive species (ROS-RNS assay), differences between groups” value ([4]; 24 hours post-injury) read?
Answer: No significant differences

Question: What about the “LDH activity vs the two sham groups” value ([4]; ICH+nec-1) of the same compound?
Answer: statistically higher levels of LDH activity

Question: What about the LDH activity ([4]; ICH+nec-1 vs ICH, 24 hours) of the same compound?
Answer: slightly lower level

Question: What about the “reactive species (ROS-RNS assay)” value ([4]; Sham+nec-1 compared to sham alone) of the same compound?
Answer: significantly lower level of reactive species

Question: What about the “total cell number / DNA content (DNA quantification)” value [4] of the same compound?
Answer: higher DNA content

Question: And the “total cell number / DNA content (DNA quantification)” value ([4]; listed as nec-1)?
Answer: significantly more cells were counted in nec-1 conditions

Question: And the “ROS / reactive species level vs untreated samples” value [4]?
Answer: statistically significant decrease in the amount of reactive species

Question: What about the “ROS / reactive species level vs untreated samples” value ([4]; listed as nec-1) of the same compound?
Answer: significantly lower ROS levels

Question: And the “cell count and viability” value ([4]; sham+nec-1, 24 hours)?
Answer: highest cell count and viability after 24 hours

Question: For N[C@H](CCCP(=O)(O)O)C(=O)O [AP-5, (2R)-amino-5-phosphonopentanoate], which “spontaneous and inducible activity (LFP)” value [3] is on record?
Answer: partially blocked
